Laboratory results: US20200045954A1, “NOVEL COMPOSITION FOR ORGAN PRESERVATION” (priority 2018, published 2020)
Non-standard residues stand in square brackets, D forms with d. No end group written: not given here.

Legend:
[1] = tested on: isolated perfused rat hearts; experiment: Cardiac function of isolated perfused rat hearts (modified Langendorff) subjected to global I(30 min)/R(45 min); conditions: for blocking of the cardio-protective effects of tri-peptide: opioid antagonist 5 μM given with tri-peptide 50 μM
[2] = tested on: isolated perfused rat hearts; experiment: Infarct size by TTC staining of isolated perfused rat hearts after I(30 min)/R(45 min)
[3] = Ventilator induced diaphragmatic dysfunction
[4] = compared to untreated control I/R hearts, tri-peptide 50 μM
[5] = final value, 45 min reperfusion
[6] = initial (baseline) value, mean ± S.E.M.

## Oc1ccc2c3c1O[C@H]1c4[nH]c5c(c4C[C@@]4(O)[C@@H](C2)N(CC2CC2)CC[C@]314)C[C@@]1(O)[C@H]2Cc3ccc(O)c4c3[C@@]1(CCN2CC1CC1)[C@H]5O4 [BNI, nor-Binaltorphimine, reference compound]
[1]
  blocking of the cardio-protective effects of tri-peptide: blocked

## Oc1ccc2c3c1O[C@H]1c4[nH]c5ccccc5c4C[C@@]4(O)[C@@H](C2)N(CC2CC2)CC[C@]314 [NALD, naltrindole, reference compound]
[1]
  blocking of the cardio-protective effects of tri-peptide: not

## Phe-[dR]-Phe-NH2 [tri-peptide]
[1]; [4]
  post-reperfused cardiac function: significantly restored
[1]; [5]
  Final +dP/dtmax: 1126.8 ± 177.2 mmHg/s
  Final Coronary How: 9.6 ± 1.5 mL/min
  Final Heart Rate: 276.3 ± 12.6 BPM
  Final LVEDP: 50.1 ± 7.4 mmHg
  Final LVESP: 105.6 ± 6.1 mmHg
  Final −dP/dtmin: 965.5 ± 112.1 mmHg/s
[1]; final value, 45 min reperfusion, LVDP=LVESP−LVEDP
  Final LVDP: 55.5 ± 6.0 mmHg
[1]; initial (baseline) value
  Initial +dP/dtmax: 2376.7 ± 75.1 mmHg/s
  Initial Coronary Flow: 17.7 ± 0.9 mL/min
  Initial Heart Rate: 287.8 ± 8.1 BPM
[1]; initial (baseline) value, LVDP=LVESP−LVEDP
  Initial LVDP: 94.2 ± 2.7 mmHg
[1]; [6]
  Initial LVEDP: 6.7 ± 0.8 mmHg
  Initial LVESP: 100.9 ± 3.1 mmHg
[2]; TTC staining after I(30 min)/R(45 min)
  infarct size: 26 ± 1%
[2]; [4]
  infarct size: reduced infarct size
[3]
  ventilator induced diaphragmatic dysfunction: attenuate
